Assay results as given in patent US12544359B2, “1-aminosulfonyl-2-carboxypyrrole derivatives as metallo-beta-lactamase inhibitors” (INFEX Therapeutics Limited, priority 2019, dated 2026).
Counter-ions that a name gives are not always drawn.

Experiments:
NDM-1 = NDM-1 (Klebsiella pneumoniae, UniProt C7C422); assay: metallo-β-lactamase inhibition assay (nitrocefin); format: biochemical; settings: 1.5 nM NDM-1, 100 μM nitrocefin, 37° C., pH 7.5
Method: Compounds of the invention were tested in a metallo-β-lactamase inhibition assay to investigate mechanism of action of the compounds. Results are reported as the concentration of test article required to inhibit enzyme activity by 50% (IC50).
Inhibition of metallo-β-lactamase enzyme function was performed at 37° C. in buffer at pH 7.5 (50 mM HEPES, 150 mM NaCl, 0.1 mM ZnSO4, 20 μg/mL PEG4000), containing 1.5 nM NDM-1, 100 μM nitrocefin, and a range of concentrations of compound. Absorbance at 490 nm was measured using a BMG LABTECH FLUOstar Omega microplate reader every minute for 30 minutes. IC50s were determined from the average increase in OD per minute versus the Log 10 concentration of compound using GraphPad Prism.

[1] = Cytotoxicity Assay (CellTiter-Glo); format: cell-based; settings: human, Hep G2 cells (ATCC HB-8065); 24 h exposure; read-out: HepG2 CC50
Method: Cytotoxicity was evaluated in human Hep G2 cells (ATCC HB-8065) seeded at a density of 2×10^5 cells per well and incubated for 24 h at 37° C., 5% CO2. Cells were exposed to a doubling dilution series of test article. After 24 h exposure, the viability of the cells was determined using CellTiter-Glo® (Promega, WI, USA) according to the manufacturer's instructions. Results are reported as the concentration of test article required to reduce cell viability by 50% (CC50).

Chain of NDM-1 (C7C422 whole entry, looked up, species assumed): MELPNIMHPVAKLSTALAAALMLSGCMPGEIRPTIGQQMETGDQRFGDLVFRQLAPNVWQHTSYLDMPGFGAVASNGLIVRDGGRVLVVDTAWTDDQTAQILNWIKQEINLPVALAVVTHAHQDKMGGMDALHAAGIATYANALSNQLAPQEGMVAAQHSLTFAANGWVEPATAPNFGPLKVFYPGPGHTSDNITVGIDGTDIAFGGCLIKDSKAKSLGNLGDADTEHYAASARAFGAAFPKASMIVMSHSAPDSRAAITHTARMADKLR

| Compound | IC50 (NDM-1) | CC50 at 24 h [1] |
| --- | --- | --- |
| NS(=O)(=O)n1ccc(-c2ccc(C(=O)NC3CNC3)cc2)c1C(=O)O [Example 35, 3-[4-(Azetidin-3-ylcarbamoyl)phenyl]-1-sulfamoyl-pyrrole-2-carboxylic acid] | 200 nM | > 256 µg/mL |
| NCCNC(=O)c1cccc(-c2ccn(S(N)(=O)=O)c2C(=O)O)c1 [Example 47, 3-[3-(2-Aminoethylcarbamoyl)phenyl]-1-sulfamoyl-pyrrole-2-carboxylic acid hydrochloride] | 163 nM | > 256 µg/mL |
| NC(=O)CNC(=O)c1ccc(-c2ccn(S(N)(=O)=O)c2C(=O)O)cc1 [Example 8, 3-[4-[(2-Amino-2-oxo-ethyl)carbamoyl]phenyl]-1-sulfamoyl-pyrrole-2-carboxylic acid] | 405 nM | > 128 µg/mL |
| CC(=O)N1CCC(c2ccn(S(N)(=O)=O)c2C(=O)O)C1 (stereo not shown) [Example 59, 3-[1-Acetylpyrrolidin-3-yl]-1-sulfamoyl-pyrrole-2-carboxylic acid] | 1610 nM | > 256 µg/mL |
| NCCNC(=O)c1ccc(-c2ccn(S(N)(=O)=O)c2C(=O)O)cc1 [Example 26, 3-[4-(2-Aminoethyl-carbamoyl)phenyl]-1-sulfamoyl-pyrrole-2-carboxylic acid] | 420 nM | > 256 µg/mL |
| NS(=O)(=O)n1ccc(-c2ccc(C(=O)NC3CC3)cc2)c1C(=O)O [Example 3, 3-[4-(Cyclopropyl-carbamoyl)phenyl]-1-sulfamoyl-pyrrole-2-carboxylic acid] | – | > 256 µg/mL |
| NCCN1CCC(c2ccn(S(N)(=O)=O)c2C(=O)O)CC1 [Example 85, 3-[1-(2-Aminoethyl)-4-piperidyl]-1-sulfamoyl-pyrrole-2-carboxylic acid] | 399 nM | > 128 µg/mL |
| NS(=O)(=O)n1ccc(-c2ccc(C(=O)N[C@@H]3CCNC[C@H]3O)cc2)c1C(=O)O [Example 38, 3-[4-[[(3R,4R)-3-Hydroxy-4-piperidyl]carbamoyl]phenyl]-1-sulfamoyl-pyrrole-2-carboxylic acid] | 652 nM | > 256 µg/mL |
| N=C(N)NCC(=O)N1CCC(c2ccn(S(N)(=O)=O)c2C(=O)O)CC1 [Example 83, 3-[1-(2-Guanidinoacetyl)-4-piperidyl]-1-sulfamoyl-pyrrole-2-carboxylic acid] | – | > 256 µg/mL |
| NS(=O)(=O)n1ccc(-c2ccc(C(=O)N[C@H]3[C@@H]4CNC[C@@H]43)cc2)c1C(=O)O [Example 43, 3-[4-[[(1S,5R)-3-Azabicyclo[3.1.0]hexan-6-yl]carbamoyl]phenyl]-1-sulfamoyl-pyrrole-2-carboxylic acid] | 273 nM | > 256 µg/mL |
| NS(=O)(=O)n1ccc(-c2ccc(C(=O)NCCN3CCOCC3)cc2)c1C(=O)O [Example 15, 3-[4-(2-Morpholinoethyl-carbamoyl)phenyl]-1-sulfamoyl-pyrrole-2-carboxylic acid] | 1790 nM | > 256 µg/mL |
| NS(=O)(=O)n1ccc(-c2ccc(C(=O)NC(CO)CO)cc2)c1C(=O)O [Example 12, 3-[4-[[2-Hydroxy-1-(hydroxymethyl)ethyl]carbamoyl]phenyl]-1-sulfamoyl-pyrrole-2-carboxylic acid] | 1060 nM | > 128 µg/mL |
| N#CCNC(=O)c1ccc(-c2ccn(S(N)(=O)=O)c2C(=O)O)cc1 [Example 6, 3-[4-(Cyanomethyl-carbamoyl)phenyl]-1-sulfamoyl-pyrrole-2-carboxylic acid] | 843 nM | > 256 µg/mL |
| NC1CN(C(=O)c2cccc(-c3ccn(S(N)(=O)=O)c3C(=O)O)c2)C1 [Example 31, 3-[3-(3-Aminoazetidine-1-carbonyl)phenyl]-1-sulfamoyl-pyrrole-2-carboxylic acid] | 3330 nM | > 256 µg/mL |
| NC1CN(C(=O)c2ccc(-c3ccn(S(N)(=O)=O)c3C(=O)O)cc2)C1 [Example 21, 3-[4-(3-Aminoazetidine-1-carbonyl)phenyl]-1-sulfamoyl-pyrrole-2-carboxylic acid] | 78 nM | > 256 µg/mL |
| CN(C)C(=O)c1ccc(-c2ccn(S(N)(=O)=O)c2C(=O)O)cc1 [Example 2, 3-[4-(Dimethylcarbamoyl)phenyl]-1-sulfamoyl-pyrrole-2-carboxylic acid] | 111 nM | > 256 µg/mL |
| NS(=O)(=O)n1ccc(-c2ccc(C(=O)NC3CCNCC3)cc2)c1C(=O)O [Example 36, 3-[4-(4-Piperidylcarbamoyl)phenyl]-1-sulfamoyl-pyrrole-2-carboxylic acid hydrochloride] | 410 nM | > 256 µg/mL |
| NCCC(=O)Nc1ccc(-c2ccn(S(N)(=O)=O)c2C(=O)O)cn1 [Example 94, 3-[6-(3-Aminopropanoylamino)-3-pyridyl]-1-sulfamoyl-pyrrole-2-carboxylic acid, sodium salt] | 2490 nM | > 256 µg/mL |

| Compound | IC50 (NDM-1) | CC50 at 24 h [1] |
| --- | --- | --- |
| NS(=O)(=O)n1ccc(-c2ccc(C(=O)N3CCNCC3)cc2)c1C(=O)O [Example 27, 3-[4-(Piperazine-1-carbonyl)phenyl]-1-sulfamoyl-pyrrole-2-carboxylic acid] | 131 nM | > 256 µg/mL |
| CC(=O)N1CCC(Cc2ccn(S(N)(=O)=O)c2C(=O)O)CC1 [Example 62, 3-[(1-Acetyl-4-piperidyl)methyl]-1-sulfamoyl-pyrrole-2-carboxylic acid] | – | > 256 µg/mL |
| NS(=O)(=O)n1ccc(C2CCN(C(=O)[C@@H]3CCCN3)CC2)c1C(=O)O [Example 73, 3-[1-[(2S)-Pyrrolidine-2 carbonyl]-4-piperidyl]-1-sulfamoyl-pyirole-2-carboxylic acid] | 568 nM | > 256 µg/mL |
| CNC(=O)c1cccc(-c2ccn(S(N)(=O)=O)c2C(=O)O)c1 [Example 1, 3-[3-(Methylcarbamoyl)phenyl]-1-sulfamoyl-pyrrole-2-carboxylic acid] | 223 nM | > 256 µg/mL |
| N[C@@H](CO)C(=O)N1CCC(c2ccn(S(N)(=O)=O)c2C(=O)O)CC1 [Example 72, 3-[1-[(2S)-2-Amino-3-hydroxy-propanoyl]-4-piperidyl]-1-sulfamoyl-pyrrole-2-carboxylic acid] | 1570 nM | > 256 µg/mL |
| NCC(=O)N1CCCC(c2ccn(S(N)(=O)=O)c2C(=O)O)C1 (stereo not shown) [Example 63, 3-[1-(2-Aminoacetyl)-3-piperidyl]-1-sulfamoyl-pyrrole-2-carboxylic acid] | 1760 nM | > 256 µg/mL |
| NCCNc1ccc(-c2ccn(S(N)(=O)=O)c2C(=O)O)cn1 [Example 95, 3-[6-(2-Aminoethylamino)-3-pyridyl]-1-sulfamoyl-pyrrole-2-carboxylic acid hydrochloride] | 377 nM | > 256 µg/mL |
| CN(C)CCNC(=O)c1ccc(-c2ccn(S(N)(=O)=O)c2C(=O)O)cc1 [Example 9, 3-[4-[2-(Dimethylamino)ethylcarbamoyl]phenyl]-1-sulfamoyl-pyrrole-2-carboxylic acid] | 373 nM | > 256 µg/mL |
| NS(=O)(=O)n1ccc(CC2CCNCC2)c1C(=O)O [Example 57, 3-(4-Piperidylmethyl)-1-sulfamoyl-pyrrole-2-carboxylic acid hydrochloride] | – | > 256 µg/mL |
| NCC1CCN(C(=O)c2ccc(-c3ccn(S(N)(=O)=O)c3C(=O)O)cc2)CC1 [Example 44, 3-[4-[4-(Aminomethyl)piperidine-1-carbonyl]phenyl]-1-sulfamoyl-pyrrole-2-carboxylic acid] | 187 nM | > 256 µg/mL |
| CCNCCNC(=O)c1ccc(-c2ccn(S(N)(=O)=O)c2C(=O)O)cc1 [Example 32, 3-[4-[2-(Ethylamino)ethylcarbamoyl]phenyl]-1-sulfamoyl-pyrrole-2-carboxylic acid] | 1060 nM | > 256 µg/mL |
| NS(=O)(=O)n1ccc(-c2ccc(C(=O)NCCCO)cc2)c1C(=O)O [Example 11, 3-[4-(3-Hydroxypropyl-carbamoyl)phenyl]-1-sulfamoyl-pyrrole-2-carboxylic acid] | 527 nM | > 256 µg/mL |
| NCC(=O)Nc1ccc(-c2ccn(S(N)(=O)=O)c2C(=O)O)cn1 [Example 93, 3-[6-[(2-Aminoacetyl)amino]-3-pyridyl]-1-sulfamoyl-pyrrole-2-carboxylic acid, sodium salt] | 162 nM | > 256 µg/mL |
| NS(=O)(=O)n1ccc(-c2ccc(C(=O)NCCN3CCCC3=O)cc2)c1C(=O)O [Example 16, 3-[4-[2-(2-Oxopyrrolidin-1-yl)ethylcarbamoyl]phenyl]-1-sulfamoyl-pyrrole-2-carboxylic acid] | 623 nM | > 256 µg/mL |
| CC(=O)N1CCCC(c2ccn(S(N)(=O)=O)c2C(=O)O)C1 (stereo not shown) [Example 58, 3-[1-Acetyl-3-piperidyl]-1-sulfamoyl-pyrrole-2-carboxylic acid] | 433 nM | – |
| NS(=O)(=O)n1ccc(-c2ccc(C(=O)NCCCOS(=O)(=O)O)cc2)c1C(=O)O [Example 54, 1-Sulfamoyl-3-[4-(3-sulfooxypropylcarbamoyl)phenyl]pyrrole-2-carboxylic acid] | – | > 256 µg/mL |
| NS(=O)(=O)n1ccc(-c2ccc(C(=O)NC[C@@H](O)CO)cc2)c1C(=O)O [Example 13, 3-[4-[[(2R)-2,3-Dihydroxypropyl]carbamoyl]phenyl]-1-sulfamoyl-pyrrole-2-carboxylic acid] | 566 nM | > 256 µg/mL |
